Experiments:
Experiment in all cases: Radioligand binding, cell membrane homogenates
D2S dopamine receptor = molecular target: T1, D2S dopamine receptor (Homo sapiens, UniProt P14416)
T1 construct: expressed in transfected cells; host or cells: HEK-293
Description: (§1) Neuro-receptor binding and functional effects of the “E559 polymorph” was examined by analyzing binding affinity [Ki (nM)], functional agonist activity [EC50 (nM)], and functional antagonist activity [IC50 (nM)] against a panel of key receptors in neurophysiological disorders. Binding and functional assays were performed at “E559 polymorph” concentrations of 0.0003, 0.003, 0.01, 0.03, 0.1, 0.3, 1, and 10 μM. In binding assays, cell membrane homogenates, expressing each receptor target, were incubated with the corresponding radio-ligand in absence or presence of several concentration of the “E559 polymorph” compound. The measurement of binding affinity of the “E559 polymorph” is represented in TABLE XIII by Ki (nM) which was calculated as percent inhibition of the binding of a radioactively labeled reference ligand at each receptor. In functional assays the HEK-293 cells expressing each receptor target were suspended in buffer and distribute in microplates and incubated for 30 minutes at room temperature or 37° C. in the presence of buffer alone (basal control), the reference agonist or antagonist, or the “E559 polymorph. Following incubation, the cells were lysed and the appropriate fluorescent probe (Ca2+ flux, cAMP, or IP1) were added for 60 minutes to measure the fluorescence transfer at the appropriate wavelength using a microplate reader. The cellular agonist effect (EC50) was calculated as a percent of control response to a known reference agonist and the cellular antagonist effect (IC50) was calculated as a percent inhibition of control reference agonist response for each receptor.

[1] = molecular target: T2, Serotonin 1A receptor (5-HT1AR) (Homo sapiens, UniProt P08908)
T2 construct: expressed in transfected cells; host or cells: HEK-293
T2 sequence (P08908 1-422): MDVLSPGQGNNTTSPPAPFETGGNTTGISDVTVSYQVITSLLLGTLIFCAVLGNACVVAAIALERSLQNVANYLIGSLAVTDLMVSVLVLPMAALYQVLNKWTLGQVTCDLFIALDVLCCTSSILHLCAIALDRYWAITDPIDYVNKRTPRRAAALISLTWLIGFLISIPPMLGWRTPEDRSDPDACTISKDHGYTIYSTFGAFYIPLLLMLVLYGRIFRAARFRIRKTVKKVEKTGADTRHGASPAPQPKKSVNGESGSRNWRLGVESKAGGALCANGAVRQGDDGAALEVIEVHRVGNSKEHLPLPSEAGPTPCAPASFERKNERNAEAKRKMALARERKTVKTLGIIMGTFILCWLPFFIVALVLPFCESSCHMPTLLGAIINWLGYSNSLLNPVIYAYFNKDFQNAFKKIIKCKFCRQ
Description: as §1

[2] = molecular target: T3, Serotonin 7 receptor (5-HT7R) (Homo sapiens, UniProt P34969)
T3 construct: expressed in transfected cells; host or cells: HEK-293
T3 sequence (P34969 whole entry): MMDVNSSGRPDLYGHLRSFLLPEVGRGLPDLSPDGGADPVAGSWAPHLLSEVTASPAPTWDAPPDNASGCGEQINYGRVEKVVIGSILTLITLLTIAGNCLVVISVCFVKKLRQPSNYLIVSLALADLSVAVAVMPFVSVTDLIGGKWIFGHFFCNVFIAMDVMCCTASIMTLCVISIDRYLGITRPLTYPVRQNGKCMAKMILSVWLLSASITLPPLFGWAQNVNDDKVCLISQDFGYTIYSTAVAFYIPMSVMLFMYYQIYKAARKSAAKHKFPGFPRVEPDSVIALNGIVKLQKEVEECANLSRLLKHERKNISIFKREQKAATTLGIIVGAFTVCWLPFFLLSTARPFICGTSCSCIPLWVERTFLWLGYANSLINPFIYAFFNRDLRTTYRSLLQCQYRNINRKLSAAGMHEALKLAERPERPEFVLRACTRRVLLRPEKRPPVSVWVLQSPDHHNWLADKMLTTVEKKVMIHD
Description: as §1

[3] = molecular target: T4, Alpha 2C adrenergic receptor (Homo sapiens, UniProt P18825)
T4 construct: expressed in transfected cells; host or cells: HEK-293
T4 sequence (P18825 1-462): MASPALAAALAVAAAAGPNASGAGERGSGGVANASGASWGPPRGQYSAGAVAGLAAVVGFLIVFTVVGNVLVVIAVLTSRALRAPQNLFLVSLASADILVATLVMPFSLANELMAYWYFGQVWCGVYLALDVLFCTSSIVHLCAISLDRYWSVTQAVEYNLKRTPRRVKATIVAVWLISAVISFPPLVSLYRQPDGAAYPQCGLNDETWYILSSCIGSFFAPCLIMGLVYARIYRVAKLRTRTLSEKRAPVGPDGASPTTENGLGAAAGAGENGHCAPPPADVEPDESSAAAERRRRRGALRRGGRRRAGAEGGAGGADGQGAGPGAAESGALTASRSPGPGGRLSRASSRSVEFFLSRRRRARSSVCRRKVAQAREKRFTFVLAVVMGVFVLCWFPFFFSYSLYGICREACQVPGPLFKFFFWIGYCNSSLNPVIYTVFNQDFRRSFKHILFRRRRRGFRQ
Description: as §1

[4] = molecular target: T5, Serotonin 2C receptor (5-HT2CR) (Homo sapiens, UniProt P28335)
T5 construct: expressed in transfected cells; host or cells: HEK-293
T5 sequence (P28335 33-458): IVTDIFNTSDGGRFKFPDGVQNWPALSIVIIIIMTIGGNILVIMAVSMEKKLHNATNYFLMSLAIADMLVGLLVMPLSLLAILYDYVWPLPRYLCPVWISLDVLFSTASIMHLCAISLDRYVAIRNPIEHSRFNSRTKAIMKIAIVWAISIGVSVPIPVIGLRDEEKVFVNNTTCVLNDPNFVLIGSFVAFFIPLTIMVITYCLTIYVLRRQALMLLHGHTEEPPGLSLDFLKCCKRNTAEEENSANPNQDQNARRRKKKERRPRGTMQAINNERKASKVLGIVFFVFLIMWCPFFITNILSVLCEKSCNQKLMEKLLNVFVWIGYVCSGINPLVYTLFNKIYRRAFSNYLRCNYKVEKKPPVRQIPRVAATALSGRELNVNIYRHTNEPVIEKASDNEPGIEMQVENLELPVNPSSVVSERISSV
Description: as §1

[5] = molecular target: T6, Alpha 2A adrenergic receptor (Homo sapiens, UniProt P08913)
T6 construct: expressed in transfected cells; host or cells: HEK-293
T6 sequence (P08913 1-465): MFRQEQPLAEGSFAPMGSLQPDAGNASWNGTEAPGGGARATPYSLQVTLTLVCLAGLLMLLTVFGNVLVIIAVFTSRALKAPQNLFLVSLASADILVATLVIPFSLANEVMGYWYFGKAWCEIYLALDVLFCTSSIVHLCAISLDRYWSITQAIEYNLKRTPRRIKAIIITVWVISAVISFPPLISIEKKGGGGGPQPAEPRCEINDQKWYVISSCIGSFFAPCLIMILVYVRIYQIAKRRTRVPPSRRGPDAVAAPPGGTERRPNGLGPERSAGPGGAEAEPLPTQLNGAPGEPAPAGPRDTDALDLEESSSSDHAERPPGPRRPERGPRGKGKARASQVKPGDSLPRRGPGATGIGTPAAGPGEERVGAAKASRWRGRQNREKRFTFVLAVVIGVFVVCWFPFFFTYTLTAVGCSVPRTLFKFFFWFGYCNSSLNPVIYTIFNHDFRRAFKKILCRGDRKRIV
Description: as §1

[6] = molecular target: T7, Beta 1 adrenergic receptor (Homo sapiens, UniProt P08588)
T7 construct: expressed in transfected cells; host or cells: HEK-293
T7 sequence (P08588 whole entry): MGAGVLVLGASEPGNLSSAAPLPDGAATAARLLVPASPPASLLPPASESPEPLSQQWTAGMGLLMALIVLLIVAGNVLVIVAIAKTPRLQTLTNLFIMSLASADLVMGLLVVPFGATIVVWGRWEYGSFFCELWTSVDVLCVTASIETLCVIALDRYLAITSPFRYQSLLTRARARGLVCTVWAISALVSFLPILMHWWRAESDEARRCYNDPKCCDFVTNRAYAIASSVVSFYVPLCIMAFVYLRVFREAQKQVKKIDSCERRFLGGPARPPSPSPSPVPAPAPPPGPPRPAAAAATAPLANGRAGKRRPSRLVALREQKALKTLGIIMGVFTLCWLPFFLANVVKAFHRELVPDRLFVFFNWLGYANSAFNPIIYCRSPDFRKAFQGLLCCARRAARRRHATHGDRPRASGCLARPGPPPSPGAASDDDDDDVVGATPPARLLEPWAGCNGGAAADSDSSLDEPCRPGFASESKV
Description: as §1

T1 sequence (P14416 1-414 isoform P14416-2): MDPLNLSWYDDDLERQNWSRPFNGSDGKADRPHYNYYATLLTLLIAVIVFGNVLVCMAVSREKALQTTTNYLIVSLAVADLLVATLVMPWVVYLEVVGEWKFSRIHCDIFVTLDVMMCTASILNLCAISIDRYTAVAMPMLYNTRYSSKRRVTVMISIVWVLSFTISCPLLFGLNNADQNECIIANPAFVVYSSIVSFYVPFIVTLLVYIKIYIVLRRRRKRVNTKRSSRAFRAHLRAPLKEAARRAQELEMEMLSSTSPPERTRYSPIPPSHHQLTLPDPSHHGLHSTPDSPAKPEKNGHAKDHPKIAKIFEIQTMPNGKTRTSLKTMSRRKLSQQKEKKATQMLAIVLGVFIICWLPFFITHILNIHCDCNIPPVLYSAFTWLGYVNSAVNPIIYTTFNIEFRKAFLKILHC

Compound: CCN(CC)C(=O)[C@@H]1C=C2c3cccc4[nH]c(Br)c(c34)C[C@H]2N(C)C1 [E559, (5R, 8R)-2-Bromo-9,10-didehydro-N,N-diethyl-6-methylergoline-8-carboxamide hemi-D-tartrate]
- Ki (D2S dopamine receptor): 2.1 nM
- Ki [1]: 9.3 nM
- Ki [2]: 3.81 nM
- Ki [3]: 27 nM
- Ki [4]: 19 nM
- Ki [5]: 10.3 nM
- Ki [6]: 109 nM

Source: patent US12331051B2 (priority 2021, dated 2025)
